Data on 5 molecules can be found in publication PMC6742494 (ACS infectious diseases, 2016).

The test system of test [1] is Mtb Haarlem 9 (RIF-resistant). As to the kind of experiment: microbe, parasite or virus in culture. The format is cell-based. As to conditions: Mycobacterium tuberculosis.
The subject of the next test is Mtb T 27 (INH-resistant). As to the kind of experiment: microbe, parasite or virus in culture. The test is classed as cell-based. As to conditions: Mycobacterium tuberculosis.
Test [2] deals with Mtb Beijing 22 (RIF-resistant). As to the kind of experiment: microbe, parasite or virus in culture. The format is cell-based. The following applies: Mycobacterium tuberculosis.
Test [3] has as its system Mtb H37Rv resistant isolates with mmpL3 mutations. The test is classed as cell-based, Mycobacterium tuberculosis.

Values after ≈ are worked out from the molar mass of the structure shown. Values joined by “and” are separate entries in the source; they are usually repeats but may differ in a detail not shown here. Equal values may be shown once.

As to `FC(F)(F)Oc1ccc(Oc2ccc(CNCCNC3C4CC5CC(C4)CC3C5)cc2)cc1` (centres unmarked) [Compound 8, N^1-adamantan-2-yl-N^2-(4-(4-(trifluoro-methoxy)phenoxy)benzyl)ethane-1,2-diamine], the MIC is 1.2 µg/mL (≈ 2.61 µM) in test [1], 0.58 µg/mL (≈ 1.26 µM) against Mtb T 27 (INH-resistant) and 1.2 µg/mL (≈ 2.61 µM) in test [2].

As for `CC[C@@H](CO)NCCN[C@@H](CC)CO` [EMB, ethambutol], the MIC (in test [1]; with Mtb T 27 (INH-resistant); in test [2]) was 1 µg/mL (≈ 4.89 µM) each time. Also, in test [3], the “susceptibility of DA5^R and TBL-140^R strains” value (“susceptibility” for short) is “identical susceptibility as wild-type H37Rv”.

For the molecule `NNC(=O)c1ccncc1` [INH, isoniazid], the MIC was 0.025 µg/mL (≈ 0.182 µM) in test [1], over 0.8 µg/mL against Mtb T 27 (INH-resistant) and 0.025 µg/mL (≈ 0.182 µM) in test [2]. Further, the “susceptibility” value in test [3] was “identical susceptibility as wild-type H37Rv”.

As for `CO[C@H]1/C=C/O[C@@]2(C)Oc3c(C)c(O)c4c(O)c(c(/C=N/N5CCN(C)CC5)c(O)c4c3C2=O)NC(=O)/C(C)=C\C=C\[C@H](C)[C@H](O)[C@@H](C)[C@@H](O)[C@@H](C)[C@H](OC(C)=O)[C@@H]1C` [RIF, rifampicin], the “susceptibility” value in test [3] is listed as “identical susceptibility as wild-type H37Rv”. In the test on Mtb T 27 (INH-resistant), this molecule showed an MIC of 0.0125 µg/mL (≈ 0.0152 µM).

Consider `CC(C)=CCC/C(C)=C/CNCCNC1C2CC3CC(C2)CC1C3` (centres unmarked) [SQ109], for which the MIC in test [3] was 6.25 µg/mL and 12.5 µg/mL.
